Values after ≈ are worked out from the molar mass of the structure shown. Where a name gives a salt, the structure may show the parent alone.
Legend:
[1] = test system: cells of porcine origin from a primary explant of porcine carotid artery; assay: PDGF induced migration of cells of porcine origin (carotid artery explant), Boyden chamber; type: cell-based; conditions: hPDGF-BB 20 ng/ml; second passage cells; FIG. 13
[2] = test system: human aortic vascular smooth muscle cell (HASOM cells); assay: PDGF-BB induced migration of human aortic vascular smooth muscle cells, Boyden chamber; type: cell-based
Protocol: The cells were then cultured in the presence of these agents for forty-eight hours prior to the migration assay. […] Each well contained an insert with a polycarbonate filter having 8 μm pores. In preparation for the migration assays, the membranes were coated with 0.1% gelatin for 8 hours, aspirated, and allowed to dry for 2 hours.
The M-199 media containing 0.5% BSA and 20 ng/ml human PDGF-B (hPDGF-BB) was placed in the bottom Boyden chamber. Cells were incubated at 5% CO2 at 37° C. for twelve hours and the cells lying on the upper surface of the membrane were scraped off. The insert membranes were removed and the cells on the lower surface of each membrane were stained with hematoxylin. Cell migration was then quantified by counting the cells in five random high-power fields on the lower surface of the membrane. All assays were run in triplicate.

## Cc1ccc(NC(=O)c2ccc(CN3CCN(C)CC3)cc2)cc1Nc1nccc(-c2cccnc2)n1 [Gleevec, imatinib mesylate]
[1]
  inhibition of PDGF-B induced migration of porcine cells: inhibited PDGF-B induced migration of theses porcine cells a dose dependent manner
[2]; hPDGF-BB 20 ng/ml, 48 h pre-treatment, 12 h migration, FIG. 12
  inhibition of PDGF induced migration of HASOM cells: potently inhibited PDGF induced migration of HASOM cells in a dose dependent manner

## CO[C@H]1C[C@@H]2CC[C@@H](C)[C@@](O)(O2)C(=O)C(=O)N2CCCC[C@H]2C(=O)O[C@H]([C@H](C)C[C@@H]2CC[C@@H](O)[C@H](OC)C2)CC(=O)[C@H](C)/C=C(\C)[C@@H](O)[C@@H](OC)C(=O)[C@H](C)C[C@H](C)/C=C/C=C/C=C/1C [rapamycin]
[2]; Homo sapiens, in vitro VSMC migration, read-out: IC50 for blocking VSMC migration
  IC50: 1 to 5 ng/mL (≈ 1.09 to 5.47 nM)

Source: US20050261283A1, “Methods and compositions for the treatment of graft failure” (priority 2002, published 2005)
